We go through 20 molecules from patent US20260209247A1, “Substituted Tricyclic Compounds” (Lupin Limited, priority 2019, published 2026).

The target of assay [1] is T1, protein-protein interaction between hSOS1 and hKRASG12C (Homo sapiens, UniProt Q07889).
T1 construct: GST-hSOS1, 564-1049aa expressed and purified in-house
T1 sequence (Q07889 564-1049): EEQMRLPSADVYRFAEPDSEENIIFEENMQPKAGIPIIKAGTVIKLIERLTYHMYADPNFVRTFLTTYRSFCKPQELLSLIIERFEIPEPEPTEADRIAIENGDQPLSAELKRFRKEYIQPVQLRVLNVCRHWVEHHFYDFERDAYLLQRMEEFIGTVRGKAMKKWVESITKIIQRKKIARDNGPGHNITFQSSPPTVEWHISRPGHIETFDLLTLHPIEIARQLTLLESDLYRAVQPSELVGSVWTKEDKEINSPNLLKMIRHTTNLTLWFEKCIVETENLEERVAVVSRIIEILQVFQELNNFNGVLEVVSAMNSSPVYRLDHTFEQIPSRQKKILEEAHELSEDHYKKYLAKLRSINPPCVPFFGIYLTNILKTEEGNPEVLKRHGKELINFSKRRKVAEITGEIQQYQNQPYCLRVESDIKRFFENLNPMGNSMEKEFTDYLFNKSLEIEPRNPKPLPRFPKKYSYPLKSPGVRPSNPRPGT
The experiment in a line: KRAS-SOS1 interaction assay (HTRF). It is filed as binding. To be noted: GST-hSOS1 564-1049aa, HIS-hKRASG12C, read-out: KRAS-SOS1 Interaction inhibition IC50. The procedure, abridged: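 GST-hSOS1 (564-1049aa) at 10-50 nM working solution pre-incubated with compounds 10 min at 20° C in HEPES pH 7.4 buffer with EDTA, DTT, BSA and Igepal. HIS-hKRASG12C (100-300 nM working solution) added for 30-60 min, then anti-GST-d2/anti-HIS-Tb detection; percent inhibition from the 665/620 nm ratio.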
For orientation: TR-FRET usually uses a lanthanide donor and a delayed reading to cut background.

The target in assay [2] is T2, nucleotide exchange on hKRASG12C mediated by hSOS1 (Homo sapiens, UniProt Q07889).
T2 construct: HIS-hSOS1, 564-1049aa mediated GTP loading onto GST-hKRASG12C; His (N); made in house
T2 sequence (Q07889 564-1049): T1 sequence (Q07889 564-1049)
The experiment in a line: Guanine nucleotide exchange assay (GNEA, HTRF). It is filed as biochemical. To be noted: HIS-hSOS1 564-1049aa mediated GTP loading onto GST-hKRASG12C 1-169aa, read-out: Guanine nucleotide exchange inhibition IC50. The procedure, abridged: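 Compounds were pre-incubated 10 min at 20 °C with HIS-hSOS1 (564-1049aa) and EDA-GTP-DY-647P1 (working solution 10-50 nM and 200 nM) in pH 7.4 HEPES with NaCl, MgCl2, DTT, BSA and Igepal. GST-hKRASG12C (1-169aa, 25-125 nM working solution) plus anti-GST-Tb was added for 30-60 min at 20 °C. Percent inhibition came from the HTRF 665/620 nm ratio.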

The test system of assay [3] is pERK after EGF stimulation in DLD1 cells. The assay can be described thus: ERK phosphorylation assay (alphascreen pERK). It is filed as cell-based. To be noted: Homo sapiens, DLD-1, 2 h compound, 200 ng/ml hEGF for 5 minutes, read-out: ERK phosphorylation inhibition IC50. The procedure, abridged: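 DLD1 cells pretreated with test compounds for 2 h, then stimulated with 200 ng/ml hEGF for 5 min. Lysates assayed by AlphaScreen SureFire for ERK1/2 p-T202/Y204, read after 2 h at 25–28 °C. % inhibition relative to the stimulated-minus-unstimulated vehicle window.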
(Bead proximity is the source of the signal in Alpha formats.)

A word on the IC50: it is the concentration that inhibits the measured activity by half. Take `Cc1nc(N[C@H](C)c2cccc(C(F)(F)C(C)(C)O)c2F)c2cc3c(cc2n1)N(C)C(=O)C3(CF)CF` [Compound 92, (R)-4-((1-(3-(1,1-difluoro-2-hydroxy-2-methylpropyl)-2-fluorophenyl)ethyl)amino)-6,6-bis(fluoromethyl)-2,8-dimethyl-6,8-dihydro-7H-pyrrolo[3,2-g]quinazolin-7-one]: the IC50 in assay [1] was 1 to 10 nM; in assay [2], 31 to 130 nM; in assay [3] it was 201 to 500 nM.

Take `Cc1nc(N[C@H](C)c2cccc(C(F)(F)[C@](C)(O)CO)c2F)c2cc3c(cc2n1)OC(C)(C)C(=O)N3C` (racemic) [Compound 23b, 4-(((R/S)-1-(3-((R/S)-1,1-difluoro-2,3-dihydroxy-2-methylpropyl)-2-fluorophenyl)ethyl)amino)-2,6,8,8-tetramethyl-6H-[1,4]oxazino[3,2-g]quinazolin-7(8H)-one]: the IC50 in assay [1] was in the range of 1 to 10 nM; in assay [2] it was 1 to 30 nM; in assay [3], 1 to 200 nM.

As to `Cc1nc(NC(C)c2cccc(C(F)(F)C(C)(C)O)c2)c2cc3c(cc2n1)C(C)(C)C(=O)N3C` (single isomer, unassigned) [Compound 73, (R/S)-4-((1-(3-(1,1-difluoro-2-hydroxy-2-methylpropyl)phenyl)ethyl)amino)-2,6,8,8-tetramethyl-6,8-dihydro-7H-pyrrolo[2,3-g]quinazolin-7-one], the IC50 in assay [1] was 1 to 10 nM; in assay [2] it was 1 to 30 nM; in assay [3], 1 to 200 nM.

With `Cc1nc(N[C@H](C)c2cccc(C(F)(F)CO)c2F)c2cc3c(cc2n1)OC(C)C(=O)N3C` (single isomer, unassigned) [Compound 30b], the IC50 lay within 1 to 10 nM in assay [1], 1 to 30 nM in assay [2] and 1 to 200 nM in assay [3].

Turning to `Cc1nc(N[C@H](C)c2cccc(C(F)(F)C(C)(O)CN(C)C)c2F)c2cc3c(cc2n1)C(C)(C)C(=O)N3C` (single isomer, unassigned) [Compound 129a], the IC50 in assay [1] was 1 to 10 nM; in assay [2], 1 to 30 nM; in assay [3], 1 to 200 nM.

As to `CCC1(C)C(=O)N(C)c2cc3nc(C)nc(N[C@H](C)c4cccc(C(F)(F)C(C)(C)O)c4F)c3cc21` (single isomer, unassigned) [Compound 93b], the IC50 fell in the range of 1 to 10 nM in assay [1], 31 to 130 nM in assay [2] and 1 to 200 nM in assay [3].

Take `COCC[C@@]1(OC)C(=O)N(C)c2cc3c(N[C@H](C)c4cccc(C(F)(F)C(C)(C)O)c4F)nc(C)nc3cc21` (single isomer, unassigned) [Compound 132b]: the results for the IC50 in assay [1], in assay [2] and in assay [3] were 1 to 10 nM, 1 to 30 nM and 1 to 200 nM, respectively.

Regarding `Cc1nc(N[C@H](C)c2cccc(C(F)(F)C(C)(C)O)c2F)c2cc3c(cc2n1)N(C)C(C)C(=O)N3C` (single isomer, unassigned) [Compound 27b], the figures for the IC50 in assay [1], in assay [2] and in assay [3] were 1 to 10 nM, 1 to 30 nM and 1 to 200 nM, respectively.

Take `CC[C@]1(C)C(=O)N(C)c2cc3nc(C)nc(N[C@H](C)c4cccc(C(F)(F)C(C)(C)O)c4F)c3cc21` (single isomer, unassigned) [Compound 93a]: the IC50 in assay [1] was in the range of 1 to 10 nM; in assay [2] it was 31 to 130 nM; in assay [3], 1 to 200 nM.

For the molecule `Cc1nc(N[C@H](C)c2cccc(C(F)(F)CO)c2F)c2cc3c(cc2n1)OC(C)CN3C` (single isomer, unassigned) [Compound 36b], the IC50 lay within 1 to 10 nM in assay [1], 1 to 30 nM in assay [2] and 1 to 200 nM in assay [3].

Turning to `CO[C@]1(C)C(=O)N(C)c2cc3nc(C)nc(N[C@H](C)c4cccc(C(F)(F)C(C)(C)O)c4F)c3cc21` (racemic) [Compound 96a, (S/R)-4-(((R)-1-(3-(1,1-difluoro-2-hydroxy-2-methylpropyl)-2-fluorophenyl)ethyl)amino)-6-methoxy-2,6,8-trimethyl-6,8-dihydro-7H-pyrrolo[3,2-g]quinazolin-7-one], the IC50 was 11 to 25 nM in assay [1], 31 to 130 nM in assay [2] and 1 to 200 nM in assay [3].

Consider `CCc1nc(N[C@H](C)c2cccc(C(F)(F)C(C)(C)O)c2F)c2cc3c(cc2n1)N(C)C(=O)C3(C)C` [Compound 86, (R)-4-((1-(3-(1,1-difluoro-2-hydroxy-2-methylpropyl)-2-fluorophenyl)ethyl)amino)-2-ethyl-6,6,8-trimethyl-6,8-dihydro-7H-pyrrolo[3,2-g]quinazolin-7-one], for which the IC50 in assay [1] was 1 to 10 nM; in assay [2], 31 to 130 nM; in assay [3], 1 to 200 nM.

With `Cc1nc(N[C@H](C)c2cccc(C(F)(F)CO)c2F)c2cc3c(cc2n1)N(C)C(=O)C31CC1` [Compound 66, (R)-4′-((1-(3-(1,1-difluoro-2-hydroxyethyl)-2-fluorophenyl)ethyl)amino)-2′,8′-dimethylspiro [cyclopropane-1,6′-pyrrolo[3,2-g]quinazolin]-7′(8′H)-one], the IC50 in assay [1] lay in the range of 1 to 10 nM; in assay [2] it was 1 to 30 nM; in assay [3] it was 1 to 200 nM.

In the case of `Cc1nc(N[C@H](C)c2cccc(C(F)(F)C(C)(C)O)c2F)c2cc3c(cc2n1)O[C@@H](C)C(=O)N3C` (single isomer, unassigned) [Compound 31a], the values for the IC50 in assay [1], in assay [2] and in assay [3] were 1 to 10 nM, 1 to 30 nM and 1 to 200 nM, respectively.

As to `CCO[C@]1(C)C(=O)N(C)c2cc3c(N[C@H](C)c4cccc(C(F)(F)C(C)(C)O)c4F)nc(C)nc3cc21` (racemic) [Compound 121b, (S/R)-4-(((R)-1-(3-(1,1-difluoro-2-hydroxy-2-methylpropyl)-2-fluorophenyl)ethyl)amino)-8-ethoxy-2,6,8-trimethyl-6,8-dihydro-7H-pyrrolo[2,3-g]quinazolin-7-one], the IC50 in assay [1] fell in the range of 1 to 10 nM; in assay [2], 1 to 30 nM; in assay [3] it was 1 to 200 nM.

On to `CNCC(C)(O)C(F)(F)c1cccc([C@@H](C)Nc2nc(C)nc3cc4c(cc23)N(C)C(=O)C(C)(C)O4)c1F` (stereo partly drawn) [Compound 55, (R&S)-4-(((1R)-1-(3-(1,1-difluoro-2-hydroxy-2-methyl-3-(methylamino)propyl)-2-fluorophenyl)ethyl)amino)-2,6,8,8-tetramethyl-6H-[1,4]oxazino[3,2-g]quinazolin-7(8H)-one], for which the IC50 was in the range of 1 to 10 nM in assay [1], 1 to 30 nM in assay [2] and 1 to 200 nM in assay [3].

On to `COC[C@@]1(C)C(=O)N(C)c2cc3c(N[C@H](C)c4cccc(C(F)(F)C(C)(C)O)c4F)nc(C)nc3cc21` (racemic) [Compound 98b, (S/R)-4-(((R)-1-(3-(1,1-difluoro-2-hydroxy-2-methylpropyl)-2-fluorophenyl)ethyl)amino)-8-(methoxymethyl)-2,6,8-trimethyl-6,8-dihydro-7H-pyrrolo[2,3-g]quinazolin-7-one], for which the IC50 in assay [1] is 11 to 25 nM; in assay [2], 31 to 130 nM; in assay [3], 1 to 200 nM.

In the case of `Cc1nc(N[C@H](C)c2cccc(C(F)(F)C(C)(C)O)c2F)c2cc3c(cc(C)c(=O)n3C)cc2n1` [Compound 38, (R)-4-((1-(3-(1,1-Difluoro-2-hydroxy-2-methylpropyl)-2-fluorophenyl)ethyl)amino)-2,6,8-trimethylpyrido[2,3-g]quinazolin-7(6H)-one], the IC50 in assay [1] was 1 to 10 nM; in assay [2], 1 to 30 nM; in assay [3], 1 to 200 nM.

On to `Cc1nc(N[C@H](C)c2cc(N)cc(C(F)(F)F)c2)c2cc3c(cc2n1)OCC(=O)N3C` [Compound 1, (R)-4-((1-(3-amino-5-(trifluoromethyl)phenyl)ethyl)amino)-2,6-dimethyl-6H-[1,4]oxazino[3,2-g]quinazolin-7(8H)-one], for which the IC50 was in the range of 1 to 10 nM in assay [1], 31 to 130 nM in assay [2] and 1 to 200 nM in assay [3].

Turning to `Cc1nc(N[C@H](C)c2cccc(C(F)(F)CO)c2F)c2cc3c(cc2n1)OCC(=O)N3C` [Compound 2, (R)-4-((1-(3-(1,1-difluoro-2-hydroxyethyl)-2-fluorophenyl)ethyl)amino)-2,6-dimethyl-6H-[1,4]oxazino[3,2-g]quinazolin-7(8H)-one], the values for the IC50 in assay [1], in assay [2] and in assay [3] were 1 to 10 nM, 1 to 30 nM and 1 to 200 nM, respectively.
